Test results as given in US20110201105A1, “LACTATION-ASSOCIATED POLYPEPTIDES” (Dairy Australia Limited, priority 2007, published 2011).

Columns and labels:
ERK = ERK assay for cell growth-promoting activity (TGR assay), Swiss 3T3 fibroblast cells; type: cell-based; conditions: tammar LAM corresponding to the bovine sample of Table 24
Description: (§1) Plasmids containing Tammar wallaby LAMs were directionally cloned into the expression vector pCMV Sport 6.0, and then transfected into the human kidney cell line HK293. A total of 1 μg of LAM-containing plasmid DNA and 10 ng of pEGFP-C1 plasmid was introduced into 70% confluent HK293 cells in 2 cm^2 wells containing 500 ul of opti-MEM-1 media. Transfection success was assessed by observing green fluorescence of cells by fluorescent microscopy. After 48 hours conditioned media containing the secreted polypeptide was collected and frozen at −20° C. The media containing the secreted polypeptides was then used directly in a variety of bioactivity assays. For the assays described below, samples of secreted polypeptides were aliquoted into individual wells of 96 or 384 well plates and stored, prior to assaying, either frozen or lyophilized.
(§2) A negative control created by transfection with an insertless vector was used in all assays. For the assays described in Examples 4A, 4B, 4C and 4D results for samples were in the form of relative fluorescence units (RFU) as described herein. […] In some cases, RFU less than two standard deviations from the mean were considered significant if the LAM sample in question produced a positive result in another assay.
Extracellular signal-regulated protein kinase (ERK) is a common and central signal transduction pathway component of tyrosine kinase receptor. Activation of ERK is indicative of an extracellular proliferation signal and provides an index of a growth promoting agent.
Swiss 3T3 fibroblast cells were plated into 384 well plates, grown to confluence and starved overnight with serum-free medium. Cells were then treated for 10 minutes with a LAM polypeptide prepared as described above. Cells were then lysed and assayed for activation of ERK. Samples were assessed for changes in the activity of ERK.
The results of ERK activation assays are shown in Table 6 as relative fluorescence units (RFU). […] These same samples are equated with LAM numbers as represented in Table 7. […]

AGS cells = assay: Cell growth using bovine cathelicidin variants in AGS cells (SRB assay); type: cell-based, human; design: unit not given here; conditions: 72 hours; for cell growth Replicate 3: -ve control 0.233; for cell growth Replicate 1: -ve control 0.247; for cell growth Replicate 4: -ve control 0.265; for cell growth Replicate 2: -ve control 0.316; for cell growth Mean: -ve control mean 0.265
Description: A cellular growth assay was performed using seven bovine cathelicidin (CATHL) variants, namely CATHL1, 4, and 6 which are known in the art (the relevant sequences can be obtained using the following hyperlink: http://www.ncbi.nlm.nih.gov/entrez/query.fcqi?db=unigene&cmd=search&term=cathelicidin) and bovine Cathelicidins 8, 9, 10 and 11 (being LAMs 32.8, 32.9, 32.10 and 32.11, respectively) as identified herein and which are derived from LAM 32. The bovine cathelicidin associated LAMs were derived by sequence comparison to the tammar polynucleotide sequence of LAM 32.
The growth rate of AGS cells was assessed in the presence of the cathelicidins. Equal numbers of human gastric epithelial AGS cells were cultured in either control media or media conditioned with bovine cathelicidins for 72 hours in a 1:10 dilution of serum and antibiotic-free Optimem. Cells were then fixed and a Sulforhodamine B (SRB) colorimetric assay was undertaken as described in Journal of Immunological Methods 208: 151-158, K. T. Papazisis, G. D. Geromichalos, K. A. Dimitriadis, A. H. Kortsaris (1997), ‘Optimization of the sulforhodamine B colorimetric assay’.
Briefly, cells were fixed directly by incubation with 10% trichloroacetic acid for 1 hour at 4° C., washed with water, air-dried overnight and then stained with 0.4% w/v sulforhodamine B, 1% acetic acid solution for 10 minutes at room temperature. Cell were again washed with 1% acetic acid and air-dried, then counted in triplicate.

chicks = assay: Chick growth assay (in ovo injection, weight at hatching); type: in vivo; conditions: for Chick weight: bovine polypeptides in conditioned media, 1 ml in ovo on day 16 of incubation, weighed on day of hatching, Saline 51.0
Description: FIG. 5. Chick growth assay by measuring weight. 10 LAMs (being bovine homologues having homology to specific Tammar ESTs), 3 known bovine cathelicidins, and four bovine cathelicidin variants were tested. Conditioned media containing a LAM polypeptides or bovine cathelicidins or variants thereof was diluted in a total of 1 ml of normal saline. Eggs on day 16 of incubation were injected with 1 ml of the media containing the into the broad end of the egg. Chicks were weighed on day of hatching. The overall condition of the chick was assessed including the possible presence of stumpy legs and/or loss of down feathers.
Conditioned media containing LAM polypeptides or bovine cathelicidins or variants thereof were diluted in a total of 1 ml of normal saline. Eggs on day 16 of incubation were injected in ovo with 1 ml of LAM polypeptides or bovine cathelicidins or variants thereof into the broad end of the egg. Chicks were weighed on day of hatching. Controls included saline only, or saline and 10 mg/ml of a peptide as a random peptide control.
As set out in Table 23, the left column indicates the polypeptide used in the assay while the right column contains chick weight in grams as a measurement of chick growth. Bolded numbers represent a chick(s) larger than the controls and more than 2 standard deviations from the mean. In addition, bolded numbers represent chicks that have been killed. The mean represents the weight of all the chicks tested within this experiment.

[1] = tested on: HSC-2 oral epithelial cells; assay: Cell viability assay to assess anti- and pro-apoptotic effects (vinblastine, Alamar Blue); type: cell-based; conditions: HSC-2 cells
Description: as §1, §2
Vinblastine is a commonly used cytotoxic agent used in chemotherapy. It induces apoptosis in a wide variety of cell types. Caspase activation and DNA fragmentation are hallmarks of the apoptotic process.
Aliquots of the secreted polypeptide samples in 96 well plates were pipetted onto HSC-2 oral epithelial cells and the cells left for 24 hours. After this time, the cells were treated with vinblastine to induce apoptosis. After a further 48 hours, the cells were analyzed for survival using a vital dye, namely Alamar Blue (resazurin) fluorescent dye (TGR BioSciences Pty Ltd, Adelaide, Australia). This dye method is a TGR proprietary assay technology and as such would be known by a person skilled in the art. Internal controls for induction of cell death via apoptosis as well as assay performance were also included on each plate. Cell survival measurements with this technique reflected the degree of apoptosis.

p38 MAPK = p38 MAPK assay of inflammatory activity in the presence of LPS, RAW macrophage cells; type: cell-based
Description: as §1
A negative control created by transfection with an insertless vector was used in all assays. For the assays described in Examples 4A, 4B, 4C and 4D results for samples were in the form of relative fluorescence units (RFU) as described herein. […]
Activation of p38 MAPK was assessed in RAW macrophage cells in the presence of lipopolysaccharide (LPS), which is a potent stimulator of the immune system and which mimics bacterial infection, thereby providing a model system for inflammation. […]

## CATHL1: bovine cathelicidin 1, known in the art (RLCRIVVIRVCR; UniProt P22226 144-155, looked up) [reference compound]
ERK
  tammar ERK activity: yes
AGS cells
  cell growth Replicate 3: 0.303
  cell growth Replicate 1: 0.412
  cell growth Replicate 4: 0.378
  cell growth Replicate 2: 0.419
  cell growth Mean: 0.378
chicks
  Chick weight: 52.8 grams

## CATHL2: bovine cathelicidin listed under LAM32, sample number 15 (RFRPPIRRPPIRPPFYPPFRPPIRPPIFPPIRPPFRPPLGPFP; UniProt P19660 131-173, looked up)
ERK
  tammar ERK activity: yes

## CATHL5: bovine cathelicidin 5 (known sequence) (GGLRSLGRKILRAWKKYGPIIVPIIRIG; UniProt P54229 132-159, looked up) [reference compound]
ERK
  tammar ERK activity: yes
AGS cells
  cell growth Replicate 3: 0.382
  cell growth Replicate 1: 0.423
  cell growth Replicate 4: 0.415
  cell growth Replicate 2: 0.441
  cell growth Mean: 0.415
chicks
  Chick weight: Killed
chicks; in ovo injection on day 16 of incubation
  death / overall condition of chick: caused death of chicks

B1: LAM 17: FGL2: Fibrinogen like-1 (Table 24); tammar polypeptide SEQ ID NO 47, bovine SEQ ID NO 107 (protein, UniProt Q29RY7 16-441, looked up)
Fibroleukin: TYGFLVVANNETEEIKDEAAQNACRVRLESRGRCEEEGECPYQVNLPPLTIQLPKQFSRIEEVFKEVQNLKEIVNSLKKTCQDCKLQADDSRDPGRNGLLLPGTGAPGETGDNRVRELEGEVNKLSSDLKNAKEEIDVLQGRLEKLNLVNMNNIEQYVDSKVANLTFVVNSLDGKCSSKCPRQEQIQSLPVQQHLIYKDCSEYYTIGKRSSELYRVTPEPRNSSFEVFCDMETMAGGWTVLQARVDGSTNFTRTWQDYKVGFGNLRREFWLGNDKIHLLTKSKDMILRIDLEDFNGIKLYALYDHFYVANEFLKYRLHIGNYNGTAGDALRFSKHYNHDLKFFTTPDRDNDRYPSGNCGLYYSSGWWFDACLSANLNGKYYHQKYRGVRNGIFWGTWPGISEAQPGGYKSSFKEVKMMIRPKHFKP
[1]; Alamar Blue, Mean RFU 1758076, SD RFU 108156
  RFU (pro-apoptotic activity): 1478245 RFU
[1]; text summary of Tables 8-11
  anti- or pro-apoptotic activity (RFU versus mean): pro-apoptotic activity
p38 MAPK; RAW macrophage cells with LPS, text summary of Tables 14 and 15
  anti-inflammatory activity (RFU significantly below the mean): anti-inflammatory activity
p38 MAPK; RAW macrophage cells, 30 minutes sample then LPS 30 minutes, Mean RFU 35980, SD RFU 4227, negative control 45833 RFU
  RFU (p38 inhibition, anti-inflammatory activity): 20814 RFU
chicks
  Chick weight: 49.2 grams
